Measurements published in PubChem BioAssay AID220 (DTP/NCI, 2004).
“And” between values parts separate entries of the source, which are not always exact repeats. Equal entries are not always repeated. Records with an inconclusive call do not appear.

System: CD8F1 mice, subcutaneous mammary adenocarcinoma, T/C%
Test: NCI In Vivo Anticancer Drug Screen. Data for tumor model Mammary Adenocarcinoma CD8F1 (subcutaneous) in CD8F1
Settings: higher = larger tumour
Outline: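 Mice carrying transplanted tumors received test compound, and survival or tumor size was recorded. Each value is the treated-group measurement divided by the corresponding measurement in vehicle-dosed controls.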

[1] = endpoint: median tumor weight (est.), dose: 12.5 mg/kg/injection, schedule: Q07DX005 (ip), vehicle: Klucel (hydroxypropylcellulose) (HPC)
[2] = endpoint: median tumor weight (est.), dose: 25.0 mg/kg/injection, schedule: Q07DX005 (ip), vehicle: Klucel (hydroxypropylcellulose) (HPC)
[3] = endpoint: median tumor weight (est.), dose: 100.0 mg/kg/injection, schedule: Q07DX005 (ip), vehicle: Klucel (hydroxypropylcellulose) (HPC)
[4] = endpoint: median tumor weight (est.), dose: 200.0 mg/kg/injection, schedule: Q07DX005 (ip), vehicle: Klucel (hydroxypropylcellulose) (HPC)
[5] = endpoint: median tumor weight change, dose: 125.0 mg/kg/injection, schedule: Q01DX001 (ip), vehicle: saline with Tween-80
[6] = endpoint: median tumor weight change, dose: 500.0 mg/kg/injection, schedule: Q01DX001 (ip), vehicle: saline with Tween-80
[7] = endpoint: median tumor weight change, dose: 1000.0 mg/kg/injection, schedule: Q01DX001 (ip), vehicle: saline with Tween-80
[8] = endpoint: median tumor weight change, dose: 6.25 mg/kg/injection, schedule: Q01DX001 (ip), vehicle: suspension in saline
[9] = endpoint: median tumor weight change, dose: 12.5 mg/kg/injection, schedule: Q01DX001 (ip), vehicle: suspension in saline
[10] = endpoint: median tumor weight change, dose: 62.5 mg/kg/injection, schedule: Q01DX001 (ip), vehicle: saline with Tween-80
[11] = endpoint: median tumor weight change, dose: 250.0 mg/kg/injection, schedule: Q01DX001 (ip), vehicle: saline with Tween-80

SMILES: NC(CSC(c1ccccc1)(c1ccccc1)c1ccccc1)C(=O)O (centres undefined)
- T/C (endpoint: median tumor weight (est.), dose: 32.0 mg/kg/injection, schedule: Q07DX005 (ip), vehicle: Klucel (hydroxypropylcellulose) (HPC)): 101 % of control
- T/C (endpoint: median tumor weight (est.), dose: 64.0 mg/kg/injection, schedule: Q07DX005 (ip), vehicle: Klucel (hydroxypropylcellulose) (HPC)): 71 % of control
- T/C (endpoint: median tumor weight (est.), dose: 128.0 mg/kg/injection, schedule: Q07DX005 (ip), vehicle: Klucel (hydroxypropylcellulose) (HPC)): 74 % of control

SMILES: O=C(Nc1ccc(Cl)c(Cl)c1)Nc1c(Oc2ccc(Cl)c(Cl)c2)ccc(Cl)c1S(=O)(=O)O
- T/C (endpoint: median tumor weight (est.), dose: 6.25 mg/kg/injection, schedule: Q07DX005 (ip), vehicle: Klucel (hydroxypropylcellulose) (HPC)): 114 % of control
- T/C (endpoint: median tumor weight (est.), dose: 6.25 mg/kg/injection, schedule: Q07DX005 (ip), vehicle: saline): 78 % of control
- T/C [1]: 244 % of control
- T/C (endpoint: median tumor weight (est.), dose: 12.5 mg/kg/injection, schedule: Q07DX005 (ip), vehicle: saline): 123 % of control
- T/C [2]: 110 % of control
- T/C (endpoint: median tumor weight (est.), dose: 25.0 mg/kg/injection, schedule: Q07DX005 (ip), vehicle: saline): 123 % of control
- T/C (endpoint: median tumor weight (est.), dose: 50.0 mg/kg/injection, schedule: Q07DX005 (ip), vehicle: Klucel (hydroxypropylcellulose) (HPC)): 318 % of control
- T/C [3]: 65 % of control
- T/C (endpoint: median tumor weight (est.), dose: 100.0 mg/kg/injection, schedule: Q07DX005 (ip), vehicle: saline): 121 % of control
- T/C [4]: 323 % of control
- T/C (endpoint: median tumor weight (est.), dose: 200.0 mg/kg/injection, schedule: Q07DX005 (ip), vehicle: saline): 114 % of control

SMILES: CC(C#N)(C#N)N=Nc1ccc(Cl)cc1Cl
- T/C [5]: 161 % of control
- T/C [6]: 115 % of control
- T/C [7]: 76 % of control

SMILES: NC(=O)c1ncn2c(=O)n(CCCl)nnc12
- T/C [8]: 69 % of control
- T/C [9]: 76 % of control
- T/C (endpoint: median tumor weight change, dose: 25.0 mg/kg/injection, schedule: Q01DX001 (ip), vehicle: suspension in saline): 45 % of control
- T/C (endpoint: median tumor weight change, dose: 50.0 mg/kg/injection, schedule: Q01DX001 (ip), vehicle: suspension in saline): 41 % of control and 46 % of control

SMILES: O=C(CCBr)N1CCN(C(=O)CCBr)CC1
- T/C (endpoint: median tumor weight (est.), dose: 10.0 mg/kg/injection, schedule: Q07DX005 (ip), vehicle: Klucel (hydroxypropylcellulose) (HPC)): 94 % of control
- T/C (endpoint: median tumor weight (est.), dose: 20.0 mg/kg/injection, schedule: Q07DX005 (ip), vehicle: Klucel (hydroxypropylcellulose) (HPC)): 53 % of control
- T/C (endpoint: median tumor weight (est.), dose: 40.0 mg/kg/injection, schedule: Q07DX005 (ip), vehicle: Klucel (hydroxypropylcellulose) (HPC)): 67 % of control
- T/C (endpoint: median tumor weight (est.), dose: 80.0 mg/kg/injection, schedule: Q07DX005 (ip), vehicle: Klucel (hydroxypropylcellulose) (HPC)): 42 % of control
- T/C (endpoint: median tumor weight (est.), dose: 160.0 mg/kg/injection, schedule: Q07DX005 (ip), vehicle: Klucel (hydroxypropylcellulose) (HPC)): 19 % of control
- T/C (endpoint: median tumor weight (est.), dose: 320.0 mg/kg/injection, schedule: Q07DX005 (ip), vehicle: Klucel (hydroxypropylcellulose) (HPC)): 6 % of control

SMILES: O=c1[nH]cnc2c1ccn2C1OC(CO)C(O)C1O (centres undefined)
- T/C (endpoint: median tumor weight change, dose: 24.0 mg/kg/injection, schedule: Q01DX001 (ip), vehicle: saline): 74 % of control
- T/C (endpoint: median tumor weight change, dose: 48.0 mg/kg/injection, schedule: Q01DX001 (ip), vehicle: saline): 62 % of control

SMILES: CC(=O)OCC1OC(OC2=C(CC=C(C)C)C(=O)c3ccccc3C2=O)C(OC(C)=O)C(OC(C)=O)C1OC(C)=O (centres undefined)
- T/C [1]: 75 % of control and 98 % of control
- T/C [2]: 69 % of control
- T/C [3]: 113 % of control
- T/C [4]: 107 % of control
- T/C (endpoint: median tumor weight (est.), dose: 400.0 mg/kg/injection, schedule: Q07DX005 (ip), vehicle: Klucel (hydroxypropylcellulose) (HPC)): 79 % of control

SMILES: Nc1ccc(S(N)(=O)=O)cc1
- T/C [10]: 112 % of control
- T/C [5]: 110 % of control
- T/C [11]: 88 % of control
- T/C [6]: 64 % of control
- T/C [7]: 124 % of control

SMILES: CC(=O)O[C@@H]1CO[C@H]2O[C@H]3[C@@H](C(C=O)=C[C@H](O)[C@@H]4C5=C(C(C)C)CC[C@]5(C)CC[C@@]34C)[C@@]2(O)C1=O
- T/C (endpoint: median tumor weight change, dose: 3.75 mg/kg/injection, schedule: Q01DX001 (ip), vehicle: Klucel (hydroxypropylcellulose) (HPC)): 36 % of control
- T/C (endpoint: median tumor weight change, dose: 15.0 mg/kg/injection, schedule: Q01DX001 (ip), vehicle: Klucel (hydroxypropylcellulose) (HPC)): 63 % of control and 74 % of control

SMILES: Cc1cc2cc3cc(C)c(N)cc3nc2cc1N
- T/C (endpoint: median tumor weight change, dose: 31.25 mg/kg/injection, schedule: Q01DX001 (ip), vehicle: saline with Tween-80): 59 % of control
- T/C [10]: 72 % of control
- T/C [5]: 42 % of control
- T/C [11]: 36 % of control

SMILES: CN1CCN(CN2C(=O)C3C4C=CC(C3C2=O)C2C3C(=O)N(CN5CCN(C)CC5)C(=O)C3C42)CC1 (centres undefined)
- T/C (endpoint: median tumor weight change, dose: 21.6 mg/kg/injection, schedule: Q01DX005 (ip), vehicle: water): 98 % of control
- T/C (endpoint: median tumor weight change, dose: 24.8 mg/kg/injection, schedule: Q01DX005 (ip), vehicle: water): 84 % of control
- T/C (endpoint: median tumor weight change, dose: 36.0 mg/kg/injection, schedule: Q01DX005 (ip), vehicle: water): 70 % of control
- T/C (endpoint: median tumor weight change, dose: 41.4 mg/kg/injection, schedule: Q01DX005 (ip), vehicle: water): 25 % of control
- T/C (endpoint: median tumor weight change, dose: 60.0 mg/kg/injection, schedule: Q01DX005 (ip), vehicle: water): 54 % of control
- T/C (endpoint: median tumor weight change, dose: 69.0 mg/kg/injection, schedule: Q01DX005 (ip), vehicle: water): 23 % of control
- T/C (endpoint: median tumor weight change, dose: 100.0 mg/kg/injection, schedule: Q01DX005 (ip), vehicle: water): 21 % of control
- T/C (endpoint: median tumor weight change, dose: 108.0 mg/kg/injection, schedule: Q01DX001 (ip), vehicle: water): 33 % of control
- T/C (endpoint: median tumor weight change, dose: 123.9 mg/kg/injection, schedule: Q01DX001 (ip), vehicle: water): 33 % of control

SMILES: OCCCN1CCCCC1CO (centres undefined)
- T/C (endpoint: median tumor weight change, dose: 125.0 mg/kg/injection, schedule: Q01DX001 (ip), vehicle: saline): 78 % of control
- T/C (endpoint: median tumor weight change, dose: 250.0 mg/kg/injection, schedule: Q01DX001 (ip), vehicle: saline): 103 % of control
- T/C (endpoint: median tumor weight change, dose: 500.0 mg/kg/injection, schedule: Q01DX001 (ip), vehicle: saline): 105 % of control
- T/C (endpoint: median tumor weight change, dose: 1000.0 mg/kg/injection, schedule: Q01DX001 (ip), vehicle: saline): 103 % of control

SMILES: NC(=S)c1cn(C2OC(CO)C(O)C2O)c2ncnc(N)c12 (centres undefined)
- T/C (endpoint: median tumor weight change, dose: 3.12 mg/kg/injection, schedule: Q01DX001 (ip), vehicle: suspension in saline): 96 % of control
- T/C [8]: 68 % of control
- T/C [9]: 76 % of control

SMILES: CCN(C)N=Nc1ccc(C(N)=O)cc1
- T/C (endpoint: median tumor weight change, dose: 50.0 mg/kg/injection, schedule: Q01DX001 (ip), vehicle: Klucel (hydroxypropylcellulose) (HPC)): 51 % of control
- T/C (endpoint: median tumor weight change, dose: 62.5 mg/kg/injection, schedule: Q01DX001 (ip), vehicle: Klucel (hydroxypropylcellulose) (HPC)): 92 % of control
- T/C (endpoint: median tumor weight change, dose: 100.0 mg/kg/injection, schedule: Q01DX001 (ip), vehicle: Klucel (hydroxypropylcellulose) (HPC)): 72 % of control
- T/C (endpoint: median tumor weight change, dose: 125.0 mg/kg/injection, schedule: Q01DX001 (ip), vehicle: Klucel (hydroxypropylcellulose) (HPC)): 91 % of control
- T/C (endpoint: median tumor weight change, dose: 200.0 mg/kg/injection, schedule: Q01DX001 (ip), vehicle: Klucel (hydroxypropylcellulose) (HPC)): 44 % of control
- T/C (endpoint: median tumor weight change, dose: 250.0 mg/kg/injection, schedule: Q01DX001 (ip), vehicle: Klucel (hydroxypropylcellulose) (HPC)): 24 % of control
- T/C (endpoint: median tumor weight change, dose: 400.0 mg/kg/injection, schedule: Q01DX001 (ip), vehicle: Klucel (hydroxypropylcellulose) (HPC)): 21 % of control

SMILES: CC(=O)O[C@H]1C(=O)[C@@]2(C)[C@H]([C@H](OC(=O)c3ccccc3)[C@]3(O)C[C@H](OC(=O)[C@H](O)[C@@H](NC(=O)c4ccccc4)c4ccccc4)C(C)=C1C3(C)C)[C@]1(OC(C)=O)CO[C@@H]1C[C@@H]2O
- T/C (endpoint: median tumor weight (est.), dose: 15.0 mg/kg/injection, schedule: Q07DX005 (ip), vehicle: Klucel (hydroxypropylcellulose) (HPC)): 57 % of control

SMILES: O=C(O[Si](Cc1ccccc1)(Cc1ccccc1)Cc1ccccc1)N(CCCl)CCCl
- T/C (endpoint: median tumor weight change, dose: 62.0 mg/kg/injection, schedule: Q01DX001 (ip), vehicle: saline with Tween-80): 159 % of control
- T/C [10]: 98 % of control and 109 % of control

SMILES: NC(=O)Oc1cccc(OC(N)=O)c1
- T/C (endpoint: mean tumor weight, dose: 50.0 mg/kg/injection, schedule: Q07DX006 (ip), vehicle: water): 161 % of control
- T/C (endpoint: mean tumor weight, dose: 100.0 mg/kg/injection, schedule: Q07DX006 (ip), vehicle: water): 56 % of control
- T/C (endpoint: mean tumor weight, dose: 200.0 mg/kg/injection, schedule: Q07DX006 (ip), vehicle: water): 73 % of control
- T/C (endpoint: mean tumor weight, dose: 400.0 mg/kg/injection, schedule: Q07DX006 (ip), vehicle: water): 93 % of control
- T/C (endpoint: median tumor weight (est.), dose: 25.0 mg/kg/injection, schedule: Q07DX005 (ip), vehicle: water): 99 % of control
- T/C (endpoint: median tumor weight (est.), dose: 50.0 mg/kg/injection, schedule: Q07DX005 (ip), vehicle: water): 105 % of control
- T/C (endpoint: median tumor weight (est.), dose: 200.0 mg/kg/injection, schedule: Q07DX005 (ip), vehicle: water): 106 % of control
- T/C (endpoint: median tumor weight (est.), dose: 400.0 mg/kg/injection, schedule: Q07DX005 (ip), vehicle: water): 63 % of control
